Laboratory results published in US20130324535A1, “USE OF SIGMA LIGANDS IN BONE CANCER PAIN” (LABORATORIOS DEL DR. ESTEVE, S.A., priority 2010, published 2013).
Counter-ions that a name gives are not always drawn. Like-named read-outs stand apart in the source and are kept apart here.

Legend:
[1] = test system: tumor-induced bone pain (tactile allodynia)
Method: This study was conducted in two parts; the first phase determined the optimal dose level for the second phase.

[2] = test system: sigma receptor; conditions: Sigma 1 and Sigma 2; cited from earlier work

SMILES: CN1CC[C@]23c4c5ccc(O)c4O[C@H]2[C@@H](O)C=C[C@H]3[C@H]1C5 [morphine]
- mitigation of allodynia (von Frey test) ([1]; Phase 1, morphine 1.25 mg/kg given at day 18): sub threshold dose
- mitigation of allodynia (von Frey test) ([1]; Phase 1, morphine 2.5 mg/kg given at day 18): able to mitigate allodynia with statistical significance
- mitigation of allodynia (von Frey test) ([1]; Phase 1, morphine 5 mg/kg given at day 18): able to mitigate allodynia with statistical significance
- effect on allodynia 24 hours after administration ([1]; Phase 2, morphine 5 mg/kg (positive control), 24 hours after administration): no significant effect

SMILES: CC(C)=CCN1CCC2(C)c3cc(O)ccc3CC1C2C (stereo not shown) [pentazocine]
- affinity of the sigma receptors [2]: very high affinity

SMILES: Cc1cc(OCCN2CCOCC2)nn1-c1ccc2ccccc2c1 [example 1, 4-{2-[5-Methyl-1-(naphthalen-2-yl)-1H-pyrazol-3-yloxy]ethyl}morpholine hydrochloride]
- mitigation of allodynia (von Frey test) ([1]; Phase 2, example 1 alone 40 mg/kg, 30 minutes after administration): not at 40 mg/kg
- mitigation of allodynia (von Frey test) ([1]; Phase 2, example 1 alone 80 mg/kg, 30 minutes after administration): statistically significant mitigation of allodynia
